Laboratory results taken from PMC11637823, “Evaluating the Antimicrobial Efficacy of a Designed Synthetic Peptide against Pathogenic Bacteria” (Journal of Microbiology and Biotechnology, 2024).
In brackets after ≈: the same amount, converted by molar mass. Ends that are not written are not given here.

What was measured:
ESKAPE pathogens = details: at one-third of the MIC; cited from earlier work
Text: A. baumannii, known for colonising medical equipment surfaces like urinary catheters to form a biofilm, contributes to recurrent and persistent patient infections. WLBU-2, a synthetic cationic peptide, and LL-37, a naturally occurring antimicrobial peptide, underwent testing for efficacy against a range ...

[1] = system: Staphylococcus saprophyticus ATCC 29970; experiment: microbe, parasite or virus in culture
Description: (§1) Clinical and Laboratory Standards Institute (CLSI) guidelines performed the peptide MIC assays. Bacterial colonies were isolated on the Muller Hinton Agar (MHA) and plated at a final concentration of 1.5 × 10^5 CFU/ml.
(§2) For the results, bacterial growth was determined by visual inspection and confirmed by absorbance measurement at 595 nm after 24 h of incubation using a Multiskan GO microplate reader (Thermo Fisher Scientific, USA). […] The rest of the assay was conducted as previously described.
(§3) The MBC was determined based on the MIC results. Three replicates of 10 μl were extracted from the microplate wells, placed on MHA, and then kept in an incubator at 37°C for 24 h. […] All experiments were performed in triplicate.

[2] = system: Staphylococcus aureus (MRSA) ATCC 33591; experiment: microbe, parasite or virus in culture
Description: as §1, §2, §3

[3] = system: Escherichia coli KPC+ 001812446; experiment: microbe, parasite or virus in culture
Description: as §1, §2, §3

[4] = system: Pseudomonas aeruginosa ATCC 27853; experiment: microbe, parasite or virus in culture
Description: as §1, §2, §3

[5] = system: Staphylococcus aureus (MRSA) ATCC 43300; experiment: microbe, parasite or virus in culture
Description: as §1, §2, §3

human erythrocytes = format: cell-based; details: 100 µM
Description: Hemolytic activity. As hemolysis is an effect widely observed among antimicrobial peptides, we investigated the RK8 peptide hemolytic activity based on the protocol proposed by Uggerhøj et al. using erythrocytes. The blood sample (1 ml) was washed three times with 3 ml of saline solution through centrifugation cycles of 8 min at 1,380 ×g to secure a concentrated solution of erythrocytes. […] The samples were incubated for 60 min at 37°C and sequentially centrifuged for 10 min at 2,455 ×g. Subsequently, 100 μl of the supernatant was transferred to 96-well microplate wells in triplicate. The free haemoglobin content was determined at 414 nm on a Multiskan GO microplate reader (Thermo Fisher Scientific).

[6] = system: RAW 264.7 murine macrophages; details: 64 µM
Description: Cellular viability. RAW 264.7 murine macrophages' cellular viability was evaluated in the presence of the RK8 peptide, according to the method proposed by Mosmann [18], using the enzymatic reduction of the reagent 3-(4,5-dimethylthiazol-2-yl bromide) -2,5-diphenyltetrazolium (MTT).
After detaching from the culture bottle, their density was determined, and they were seeded in a 96-well microplate at a density of 6 × 10^3 cells per well. After being placed in microplates, the cells were incubated for 24 h. The culture medium was replaced with a DMEM culture medium lacking SFB supplementation. Instead, it contained a serial dilution of RK8 ranging from 1 to 64 μM. After 24 h, the medium containing RK8 was removed and replaced with 100 μl of DMEM medium containing MTT 0.5 mg/ml. After four hours of incubation, the medium was removed again, and the reduced formazan crystals were resuspended with the addition of 100 μl of DMSO. Then, the absorbance of the wells was determined at 630 nm in a Varioskan microplate reader (Thermo Fisher Scientific). Three independent experiments were performed in triplicate. Cell viability was calculated from the following formula:
Cell viability (%) = (AbsSample÷AbsNegative control) × 100

in vitro = experiment: in vitro
Description: The mixture was maintained at 30°C. Aliquots of 150 μl were collected after 0, 15, 30, 45, 60, and 120 min, mixed with ten μl of Trifluoroacetic Acid (TFA) and centrifuged at 14 000 rpm at 4°C for 10 min [19]. High-Performance Liquid Chromatography (HPLC) monitored the stability of the peptide using the C-18 reversed-phase hydrophobic column (μ Bondapak C18, 3.9 × 300 mm, Waters, USA) at 25°C. The peptide's remaining percentage during degradation kinetics was calculated by integrating the peak area corresponding to the RK8 peptide, injecting 40 μl of the incubation product in triplicate. The assay was conducted in an Ultimate 3000 chromatograph (Thermo Fisher Scientific). A separation program of 60 min at 1 ml/min was implemented, with monitoring of the 220 and 280 nm wavelengths. Thermo Scientific's ChromeleonTM Chromatography Data System (CDS) 7 software determined the area under the curve.

[7] = system: Acinetobacter baumannii IC 003321216; details: IC 003321216, 24 h
Description: as §1, §2, §3

[8] = system: Escherichia coli ATCC 35218; details: ATCC 35218, 24 h
Description: as §1, §2, §3

[9] = system: Acinetobacter baumannii ATCC 19906; details: ATCC 19906, 24 h
Description: as §1, §2, §3

[10] = system: Klebsiella pneumoniae ATCC 700603; details: ATCC 700603, 24 h
Description: as §1, §2, §3

[11] = system: E. coli, P. aeruginosa, and A. baumanii; details: 24 h
E. coli = system: E. coli; set-up: method as in PMID 16352849; details: cited from earlier work
[12] = system: A. baumannii biofilm (IC 003321216); experiment: Mature biofilm eradication, MTT viability; details: ciprofloxacin alone
Gram-negative bacteria = experiment: MIC and MBC assays, span over strains; format: cell-based
Description: as §1, §2, §3

[13] = Staphylococcus saprophyticus, ATCC29970, 24 h

LL-37
inhibition of biofilm formation (ESKAPE pathogens): 90%

RKWRKWWK [RK8]
MBC ([1]; ATCC 29970, 24 h): 64 µM | MIC ([1]; ATCC 29970, 24 h): >64 µM | MBC ([2]; ATCC 33591, 24 h): 8 µM | MIC ([2]; ATCC 33591, 24 h): 8 µM | MBC ([3]; KPC+ 001812446, 24 h): 8 µM | MIC ([3]; KPC+ 001812446, 24 h): 16 µM | MBC ([4]; ATCC 27853, 24 h): 64 µM | MBC ([5]; ATCC 43300, 24 h): 8 µM | MIC ([5]; ATCC 43300, 24 h): 16 µM | hemolysis (human erythrocytes): approximately 4.6% | cell viability [6]: 90.1% | decrease in the overall area (in vitro; 25% FBS in ultrapure water, 30°C, 120 min, RP-HPLC C18 peak area, triplicate): 40% | area under the RK8 peak (intact peptide) (in vitro; 25% FBS in ultrapure water, 30°C, first 45 min, RP-HPLC C18 peak area, triplicate): unaffected | metabolised at 1 h, 0.385 mg/ml (in vitro; 25% fetal bovine serum (FBS)): 12.2% | remaining at 2 h, 0.385 mg/ml (in vitro; 25% fetal bovine serum (FBS)): ~60% | MBC [7]: 4 µM | MIC [7]: 64 µM | MBC [8]: 2 µM | MIC [8]: >64 µM | MBC [9]: 4 µM | MIC [9]: >64 µM | MBC [10]: 64 µM | MIC [10]: >64 µM | concentrations with bactericidal effect (consistent MIC and MBC values) [11]: 0.5 to 4 µM

Indolicidin
MIC (E. coli): 10 µM

O=C(O)c1cn(C2CC2)c2cc(N3CCNCC3)c(F)cc2c1=O [Ciprofloxacin, ciprofloxacin]
impact on biofilm [12]: no impact

CN[C@H](CC(C)C)C(=O)N[C@H]1C(=O)N[C@@H](CC(N)=O)C(=O)N[C@H]2C(=O)N[C@H]3C(=O)N[C@H](C(=O)N[C@H](C(=O)O)c4cc(O)cc(O)c4-c4cc3ccc4O)[C@H](O)c3ccc(c(Cl)c3)Oc3cc2cc(c3O[C@@H]2O[C@H](CO)[C@@H](O)[C@H](O)[C@H]2O[C@H]2C[C@](C)(N)[C@H](O)[C@H](C)O2)Oc2ccc(cc2Cl)[C@H]1O [Vancomycin, vancomycin, reference compound]
MBC ([1]; 10 μl from MIC wells on MHA, 37°C, 24 h, triplicate): one | MBC [1, 13]: 1 µM (≈ 1.45 µg/mL) | MIC [1, 13]: 0.5 µM (≈ 0.725 µg/mL) | MBC ([2]; Staphylococcus aureus, 24 h): 1 µM (≈ 1.45 µg/mL) | MBC ([3]; Escherichia coli, 24 h): 0.5 µM (≈ 0.725 µg/mL) | MIC ([3]; Escherichia coli, 24 h): 0.5 µM (≈ 0.725 µg/mL) | MBC ([4]; Pseudomonas aeruginosa, ATCC27853, 24 h): 1 µM (≈ 1.45 µg/mL) | MBC ([5]; Staphylococcus aureus, ATCC43300|MRSA, 24 h, 10 μl from MIC wells on MHA, 37°C, triplicate): 1 µM (≈ 1.45 µg/mL) | MBC (Gram-negative bacteria; read-out: MBC values): 0.5 to 4 µM (≈ 0.725 to 5.8 µg/mL) | MIC (Gram-negative bacteria; span over Gram-negative strains, 1.5 × 10^5 CFU per ml): 0.5 to 8 µM (≈ 0.725 to 11.6 µg/mL)
